In ChEMBL document CHEMBL1150742, “Verrucofortine, a major metabolite of Penicillium verrucosum var. cyclopium, the fungus that produces the mycotoxin verrucosidin” (J Nat Prod, 1988):

Key:
Conditions in all cases: in vivo
[1] = Toxicity in ip dosed mouse; format: organism-based
Mus musculus [2] = experiment: Neurotoxicity in mouse assessed as labored breathing at 160 mg/kg, ip; format: toxicity, organism-based; parameters: dose 160 mg/kg, route intraperitoneal
Mus musculus [3] = experiment: Neurotoxicity in mouse assessed as ataxia at 160 mg/kg, ip; format: toxicity, organism-based; parameters: dose 160 mg/kg, route intraperitoneal
Mus musculus [4] = experiment: Neurotoxicity in mouse assessed as distress at 160 mg/kg, ip; format: toxicity, organism-based; parameters: dose 160 mg/kg, route intraperitoneal
Mus musculus [5] = experiment: Neurotoxicity in mouse assessed as tremorgenic activity at 160 mg/kg, ip; format: toxicity, organism-based; parameters: dose 160 mg/kg, route intraperitoneal

Structure (SMILES) | LD50 [1] [mg/kg] | Activity (Mus musculus [2]) | Activity (Mus musculus [3]) | Activity (Mus musculus [4]) | Activity (Mus musculus [5])
COc1c(C)c([C@]2(C)O[C@H]2/C(C)=C/C(C)=C/[C@]2(C)O[C@H](C)[C@@]3(C)O[C@H]32)oc(=O)c1C [VERRUCOSIDIN] | 4 | – | – | – | –
C=CC(C)(C)[C@@]12C[C@H]3C(=O)N[C@H](CC(C)C)C(=O)N3[C@H]1N(C(C)=O)c1ccccc12 [VERRUCOFORTINE] | – | Non-toxic | Non-toxic | Non-toxic | Non-toxic
